# Laboratory results published in patent US20230159527A1, “COMPOUNDS AS BCL-2 INHIBITORS” (Fochon Pharmaceuticals, Ltd., priority 2020, published 2023).
# pIC50: −log10 of the molar value. Like-named read-outs stand apart in the source and are kept apart here.
# Tests used:
# DoHH2 cells = test: Cell proliferation assay, DoHH2 cells (MTS, 120 h); format: cell-based
# Experimental: MTS testing kit was purchased from Promega (Madison, Wis., USA). The RPMI-1640, Fetal bovine serum and Penicillin-Streptomycin were purchased from BI (Biological Industries, Beit Haemek, Israel). Dimethyl sulfoxide (DMSO) was purchased from Sigma (St. Louis, Mo., USA). DoHH2 (DSMZ catalog #: ACC47) cells were cultured in RPMI-1640 supplemented with Penicillin-Streptomycin and 10% FBS.
# To investigate whether a compound is able to inhibit the activity of BCL-2 in cells, a mechanism-based assay using DoHH2 lines was developed. In this assay, the inhibition of BCL-2 was reflected by the inhibition of cell proliferation of DoHH2 cells. Cells were plated into 96-well plates at the optimized cell density of 5000 cells/well. Plates were incubated at 37° C., with 5% CO2 for 4h. Compounds were serially diluted and added to the plates with the final concentrations of 10000, 3333.3, 1111.1, 370.4, 123.5, 41.2, 13.7, 4.6 and 1.5 nM. Plates were incubated at 37° C., with 5% CO2 for 120 h. 20 μl MTS was added into each well and the plates were incubated at 37° C., with 5% CO2 for exactly 2 h. The absorbance was measured by a microplate reader at 490 nm. IC50 was calculated using GraphPad Prism 5.0 software.
# Toledo cells = test: Cell proliferation assay, Toledo cells (MTS, 72 h); format: cell-based; conditions: Toledo cells, MTS, read-out: Toledo IC50
# In short: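 IC50 was derived from 490 nm absorbance after a 2 h MTS step. Before that, compounds at 1.5–10000 nM final (nine points) acted on Toledo cells for 72 h at 37 °C, 5% CO2. Cells were seeded at 30000/well in 10% FBS RPMI-1640 and rested 4 h before dosing.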
SMILES,pIC50 (DoHH2 cells),pIC50 (Toledo cells),"pIC50 (DoHH2 cells; Homo sapiens, DOHH-2)",pIC50 (Toledo cells; Homo sapiens)
"CC(C)c1ccccc1C1COCCN1C1CC2(CCN(c3ccc(C(=O)NS(=O)(=O)c4cnc(NCC5CCC(N=S(C)(C)=O)CC5)c([N+](=O)[O-])c4)c(Oc4cnc5[nH]ccc5c4)c3)CC2)C1 (single isomer, unassigned) [Example A-57, 2-((1H-pyrrolo[2,3-b]pyridin-5-yl)oxy)-N-((6-((((1r,4r)-4-((dimethyl (oxo)-λ^6-sulfanylidene)amino)cyclohexyl)methyl)amrno)-5-nitro-pyridin-3-yl)sulfonyl)-4-(2-((R or S)-3-(2-isopropylphenyl)morpho-lino)-7-azaspiro[3.5]nonan-7-yl) benzamide]",≥ 9.00,8.70,,
"CC(C)c1ccccc1C1CN(C)CCN1C1CC2(CCN(c3ccc(C(=O)NS(=O)(=O)c4cnc(NCC5CCC(C)(O)CC5)c([N+](=O)[O-])c4)c(Oc4cnc5[nH]ccc5c4)c3)CC2)C1 (single isomer, unassigned) [Example A-62, (R or S)-2-((1H-pyrrolo[2,3-b]pyridin-5-yl)oxy)-N-((6-(((4-hydroxy-4-methylcyclohexyl)methyl)amino)-5-nitropyridin-3-yl)sulfonyl)-4-(2-(2-(2-isopropylphenyl)-4-methyl-piperazin-1-yl)-7-azaspiro[3.5]nonan-7-yl)benzamide]",,,≥ 9.00,9.00
"CC(C)c1ccccc1[C@@H]1COCCN1C1CC2(CCN(c3ccc(C(=O)NS(=O)(=O)c4cnc(NC[C@H]5CC[C@](C)(O)CC5)c([N+](=O)[O-])c4)c(Oc4cnc5[nH]cc(F)c5c4)c3)CC2)C1 (single isomer, unassigned) [Example A-128, 2-((3-fluoro-1H-pyrrolo[2,3-b]pyridin-5-yl)oxy)-N-((6-((((1r,4r)-4-hydroxy-4-methylcyclohexyl)methyl)amino)-5-nitropyridin-3-yl)sulfonyl)-4-(2-((R or S)-3-(2-isopropylphenyl)morpholino)-7-azaspiro[3.5]nonan-7-yl) benzamide]",,,≥ 9.00,9.00
"CC(C)c1ccccc1[C@@H]1COCCN1C1CC2(CCN(c3ccc(C(=O)NS(=O)(=O)c4cnc(NC[C@H]5CC[C@](C)(O)CC5)c([N+](=O)[O-])c4)c(Oc4cnc5[nH]cc(Cl)c5c4)c3)CC2)C1 (single isomer, unassigned) [Example A-129, 2-((3-chloro-1H-pyrrolo[2,3-b]pyridin-5-yl)oxy)-N-((6-((((1r,4r)-4-hydroxy-4-methylcyclohexyl)methyl)amino)-5-nitropyridin-3-yl)sulfonyl)-4-(2-((R or S)-3-(2-isopropylphenyl)morpholino)-7-azaspiro[3.5]nonan-7-yl) benzamide]",,,≥ 9.00,9.00
"CC(C)c1ccccc1[C@@H]1CCC[C@@H]1N1CC2(CCN(c3ccc(C(=O)NS(=O)(=O)c4cnc(NC[C@H]5CC[C@](C)(O)CC5)c([N+](=O)[O-])c4)c(Oc4cnc5[nH]ccc5c4)c3)CC2)C1 (single isomer, unassigned) [Example A-136, 2-((1H-pyrrolo[2,3-b]pyridin-5-yl)oxy)-N-((6-((((1r,4r)-4-hydroxy-4-methylcyclohexyl)methyl)amino)-5-nitropyridin-3-yl)sulfonyl)-4-(2-((1R,2R or 1S, 2S)-2-(2-isopropylphenyl)cyclo-pentyl)-2,7-diazaspiro[3.5]nonan-7-yl)benzamide]",,,≥ 9.00,9.00
"CC(C)c1ccccc1C1COCCN1C1CC2(CCN(c3ccc(C(=O)NS(=O)(=O)c4cc([N+](=O)[O-])c5c(n4)OC[C@H](CC4CCOCC4)N5)c(Oc4cnc5[nH]ccc5c4)c3)CC2)C1 (single isomer, unassigned) [Example B-51, 2-((1H-pyrrolo[2,3-b]pyridin-5-yl)oxy)-4-(2-((R or S)-3-(2-isopropylphenyl)morpholino)-7-azaspiro[3.5]nonan-7-yl)-N-(((S)-8-nitro-2-((tetrahydro-2H-pyran-4-yl)methyl)-2,3-dihydro-1H-pyrido[2,3-b][1,4]oxazin-6-yl)sulfonyl)benzamide]",,,≥ 9.00,
"CC(C)c1ccccc1C1COCCN1C1CC2(CCN(c3ccc(C(=O)NS(=O)(=O)c4cc5c(c([N+](=O)[O-])c4)N[C@@H](CN4CCC(NS(C)(=O)=O)CC4)CO5)c(Oc4cnc5[nH]ccc5c4)c3)CC2)C1 (single isomer, unassigned) [Example D-23, 2-((1H-pyrrolo[2,3-b]pyridin-5-yl)oxy)-4-(2-((R or S)-3-(2-isopropylphenyl)morpholino)-7-azaspiro[3.5]nonan-7-yl)-N-(((S)-3-((4-(methylsulfonamido)piperidin-1-yl)methyl)-5-nitro-3,4-dihydro-2H-benzo[b][1,4]oxazin-7-yl)sulfonyl)benzamide]",,,≥ 9.00,
"O=C(NS(=O)(=O)c1cc2c(c([N+](=O)[O-])c1)N[C@@H](CN1CCOCC1)CCO2)c1ccc(N2CCC3(CC2)CC(N2CCC[C@H]2c2ccccc2C2CC2)C3)cc1Oc1cnc2[nH]ccc2c1 (single isomer, unassigned) [Example D-24, 2-((1H-pyrrolo[2,3-b]pyridin-5-yl)oxy)-4-(2-((R or S)-2-(2-cyclopropylphenyl)pyrrolidin-1-yl)-7-azaspiro[3.5]nonan-7-yl)-N-(((R)-4-(morpholinomethyl)-6-nitro-2,3,4,5-tetrahydrobenzo [b][1,4]oxazepin-8-yl)sulfonyl) benzamide]",,,≥ 9.00,
"O=C(NS(=O)(=O)c1cc2c(c([N+](=O)[O-])c1)O[C@@H](CN1CCOCC1)CO2)c1ccc(N2CCC3(CC2)CC(N2CCC[C@H]2c2ccccc2C2CC2)C3)cc1Oc1cnc2[nH]ccc2c1 (single isomer, unassigned) [Example E-34, 2-((1H-pyrrolo [2,3-b]pyridin-5-yl)oxy)-4-(2-((R or S)-2-(2-cyclopropylphenyl)pyrrolidin-1-yl)-7-azaspiro[3.5]nonan-7-yl)-N-(((5)-2-(morpholinomethyl)-8-nitro-2,3-dihydrobenzo [b][1,4]dioxin-6-yl)sulfonyl) benzamide]",,,≥ 9.00,
"CC(C)c1ccccc1[C@@H]1CCCN1C1CC2(CCN(c3ccc(C(=O)NS(=O)(=O)c4cc5c(c([N+](=O)[O-])c4)O[C@@H](CN4CCOCC4)CO5)c(Oc4cnc5[nH]ccc5c4)c3)CC2)C1 (single isomer, unassigned) [Example E-35, 2-((1H-pyrrolo [2,3-b]pyridin-5-yl)oxy)-4-(2-((R or S)-2-(2-isopropylphenyl)pyrrolidin-1-yl)-7-azaspiro[3.5]nonan-7-yl)-N-(((S)-2-(morpholinomethyl)-8-nitro-2,3-dihydrobenzo [b][1,4]dioxin-6-yl)sulfonyl) benzamide]",,,≥ 9.00,8.15
"CC(C)c1ccccc1C1COCCN1C1CC2(CCN(c3ccc(C(=O)NS(=O)(=O)c4cc5c(c([N+](=O)[O-])c4)O[C@@H](CN4CCOCC4)CO5)c(Oc4cnc5[nH]ccc5c4)c3)CC2)C1 (single isomer, unassigned) [Example E-36, 2-((1H-pyrrolo [2,3-b]pyridin-5-yl)oxy)-4-(2-((R or S)-3-(2-isopropylphenyl)morpholino)-7-azaspiro[3.5]nonan-7-yl)-N-(((S)-2-(morpholinomethyl)-8-nitro-2,3-dihydrobenzo [b][1,4]dioxin-6-yl)sulfonyl)benzamide]",,,≥ 9.00,
"O=C(NS(=O)(=O)c1cc2c(c([N+](=O)[O-])c1)O[C@@H](CN1CCOCC1)CO2)c1ccc(N2CCC3(CC2)CC(N2CCOC[C@H]2c2ccccc2C2CC2)C3)cc1Oc1cnc2[nH]ccc2c1 (single isomer, unassigned) [Example E-37, 2-((1H-pyrrolo [2,3-b]pyridin-5-yl)oxy)-4-(2-((R or S)-3-(2-cyclopropylphenyl)morpholino)-7-azaspiro[3.5]nonan-7-yl)-N-(((S)-2-(morpholinomethyl)-8-nitro-2,3-dihydrobenzo [b][1,4]dioxin-6-yl)sulfonyl) benzamide]",,,≥ 9.00,
"CC1(O)CCC(CNc2ncc(S(=O)(=O)NC(=O)c3ccc(N4CCC5(CC4)CC(N4CCC[C@H]4c4ccccc4C4CC4)C5)cc3Oc3cnc4[nH]ccc4c3)cc2[N+](=O)[O-])CC1 (stereo partly drawn) [Example A-1b, (S)-2-((1H-pyrrolo[2,3-b]pyridin-5-yl)oxy)-4-(2-(2-(2-cyclopropylphenyl)pyrrolidin-1-yl)-7-azaspiro[3.5]nonan-7-yl)-N-((6-(((4-hydroxy-4-methylcyclohexyl)methyl)amino)-5-nitropyridin-3-yl)sulfonyl)benzamide]",,,≥ 9.00,
"CC(C)c1ccccc1[C@@H]1CCCN1C1CC2(CCN(c3ccc(C(=O)NS(=O)(=O)c4cnc(NCC5CCC(C)(O)CC5)c([N+](=O)[O-])c4)c(Oc4cnc5[nH]ccc5c4)c3)CC2)C1 (stereo partly drawn) [Example A-6b, (S)-2-((1H-pyrrolo[2,3-b]pyridin-5-yl)oxy)-N-((6-(((4-hydroxy-4-methylcyclohexyl)methyl)amino)-5-nitropyridin-3-yl)sulfonyl)-4-(2-(2-(2-isopropylphenyl)pyrrolidin-1-yl)-7-azaspiro[3.5]nonan-7-yl) benzamide]",,,≥ 9.00,
